Results: US20250326756A1, “METHOD FOR PRODUCING 3,6-DISUBSTITUTED-IMIDAZO[1,2-B]PYRIDAZINE COMPOUNDS” (NUVATION BIO INC., priority 2022, published 2025)

Assay: Particle size distribution of monoadipate salt particles
Assay type: physicochemical
Conditions: particles without milling or after wet milling
Method: The crude product was purified and milled as follows: After 4.02 Kg/Kg of anhydrous ethanol and 2.2 Kg/Kg of purified water were added into a reactor and stirred, the crude product obtained above was added to the mixture. The reaction mixture was heated to 65-70° C. and stirred until a clear solution was obtained. The recommended stirring time and rotation speed were 0.5-1 hour and 60-100 rpm, respectively. The reaction mixture was then cooled to 50-55° C. (target temperature: 53° C.) with a recommended cooling rate of 5-10° C./h. After 0.01 Kg/Kg of seed crystals of the compound of formula (5) adipate salt were added to the mixture at 50˜55° C., the mixture was stirred for 1˜3 hours (target: 2 hours) at this temperature. The reaction mixture was cooled down to 20-30° C. (target temperature: 25° C.) with recommended cooling rate of 5-10° C./h. After 8.4 Kg/Kg of purified water was slowly added to the mixture at 20-30° C. in 1-3 hours (target: 2 hours), the mixture was stirred for 1˜3 hours (target: 2 hours) at this temperature. The mixture was cooled to −5 to 5° C. (target temperature: 0° C.) at a cooling rate of 5 to 10° C./h, and stirred at this temperature for 4 to 8 hours (target: 6 hours). While maintaining the temperature at −5 to 5° C. (target temperature: 0° C.), the reaction mixture was passed through a wet mill (Blade no. 2, 6, and 6; rotation speed: 6,000-10,000 rpm, target: 8,000 rpm). Samples were taken every 20-30 minutes to measure the particle size of the solids after wet milling until D50 was no more than 45 μm (target: 35-45 μm). The reaction mixture was filtered through a filter with filter dryer sheath pre-cooled to T=−5˜5° C. The filter cake was washed with a mixture of 1.1 Kg/Kg of purified water and 0.39 Kg/Kg of anhydrous ethanol, which was pre-cooled to −5˜5° C. and maintain for at least 0.5 hour. The solid thus obtained was dried at 50˜60° C. in an oven under a controlled temperature of no more than 70° C. for 12 hours. Samples were taken every 4˜8 hours to track the residual ethanol and make sure the content of residual ethanol was no more than 0.4%. […]

Substance: 3-(4-((R)-2-aminopropoxy)phenyl)-N—((R)-1-(3-fluorophenyl)ethyl)imidazo[1,2-b]pyridazin-6-amine adipate salt [compound of formula (5) adipate salt]
- Particle size D10: 7.2 μm
- Particle size D50: 44 μm
- Particle size D90: 107 μm
